{
  "source": "patent US20200361871A1",
  "about": "(Enterprise Therapeutics Ltd., priority 2018, published 2020)",
  "key": {"[1]": {"assay": "Solubility assessment of Compound 36 Form A in solvents at 50° C.", "format": "physicochemical", "parameters": "key to Solubility (dissolution in solvent): ✓: material dissolved at 50° C.; x: material did not dissolve; ?: partial dissolution", "method": "Compound 36 (Form 1, approximately 30 mg) was weighed into 2 ml glass vials and was treated with aliquots of solvent. The samples were stirred at 50° C., 400 rpm, for approximately 10 minutes between addition of aliquots of solvent. Solvent was added until a clear solution was formed or a maximum of 60 volumes (1.8 ml) of solvent was reached.\nSamples that were solutions (or close to dissolution, sample in DCM) were cooled to 5° C. at 0.1° C./min and were stirred overnight. After cooling, the samples that contained solids were filtered using PTFE frits, dried under suction for approximately 30 minutes and were analysed by XRPD.\nSamples that were suspensions in 60 volumes of solvent were matured (shaken in cycles of 4 hours at 50° C./4 hours at RT). After 5 days, samples were filtered using PTFE frits, dried under suction for approximately 30 minutes and were analysed by XRPD."}, "[2]": {"assay": "Competitive suspension equilibration of all known forms of Compound 36 in surfactant buffers", "format": "physicochemical", "settings": "20° C.", "method": "Equimolar composites of the forms of Compound 36 were stirred in each surfactant buffer configuration as follows.\nEquimolar admixtures of each form and the amorphous phase were prepared and suspended in the appropriate surfactant buffer configuration at the dose relevant concentration of 5 mg/ml and stirred at 20° C. for 13 days. Stirring was suspended, the slurries were centrifuged, supernatant decanted and the pellets were dried under reduced pressure and analysed.\nAll known forms of Compound 36 were combined in approximately equimolar proportions. Each composite was suspended in Tween/Span and Tween 80 buffers (5 mg/ml concentration) in two vessels and stirred at 20° C. […] Therefore, order of succession in formulation vehicles under ambient storage supported Form A as the preferred form."}, "[3]": {"assay": "Solubility assessment of Compound 36 Form A in solvents at 50° C.", "format": "physicochemical", "settings": "acetone and ethanol"}, "[4]": {"biological_target": "human TMEM16A (TMEM16Aabc variant) (Homo sapiens, UniProt Q5XXA6, DEL476-501, form not given)", "sequence (Q5XXA6 with tags, fused parts or gaps DEL476-501)": "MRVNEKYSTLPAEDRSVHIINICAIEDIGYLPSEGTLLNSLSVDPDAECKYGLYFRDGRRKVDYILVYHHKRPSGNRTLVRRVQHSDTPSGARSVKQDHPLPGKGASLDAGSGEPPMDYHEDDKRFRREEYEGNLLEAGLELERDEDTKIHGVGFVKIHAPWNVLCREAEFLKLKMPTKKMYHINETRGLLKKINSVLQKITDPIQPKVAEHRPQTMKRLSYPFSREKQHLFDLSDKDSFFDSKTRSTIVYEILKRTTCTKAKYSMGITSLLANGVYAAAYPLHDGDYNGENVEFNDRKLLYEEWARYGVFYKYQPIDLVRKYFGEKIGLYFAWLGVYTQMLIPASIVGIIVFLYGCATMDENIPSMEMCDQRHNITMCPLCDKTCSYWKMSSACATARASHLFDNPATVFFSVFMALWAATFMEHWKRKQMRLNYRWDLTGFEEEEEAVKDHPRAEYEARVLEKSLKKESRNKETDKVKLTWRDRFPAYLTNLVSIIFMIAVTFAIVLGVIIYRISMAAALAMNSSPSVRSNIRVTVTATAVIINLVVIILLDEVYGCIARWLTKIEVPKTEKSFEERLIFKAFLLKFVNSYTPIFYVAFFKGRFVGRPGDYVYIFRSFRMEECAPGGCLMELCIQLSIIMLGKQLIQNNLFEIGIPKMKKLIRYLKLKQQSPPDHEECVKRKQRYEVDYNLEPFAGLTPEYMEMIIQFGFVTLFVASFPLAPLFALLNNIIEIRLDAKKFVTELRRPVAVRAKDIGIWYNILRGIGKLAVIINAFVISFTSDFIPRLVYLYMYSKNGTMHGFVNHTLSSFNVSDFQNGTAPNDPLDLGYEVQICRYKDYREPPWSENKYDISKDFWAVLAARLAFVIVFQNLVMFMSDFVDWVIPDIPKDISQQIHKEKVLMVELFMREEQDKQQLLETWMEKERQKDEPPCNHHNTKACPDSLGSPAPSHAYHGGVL", "assay": "Automated whole-cell patch clamp (Qpatch) TMEM16A potentiator assay in FRT cells stably expressing human TMEM16A", "format": "cell-based", "in_short": "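FRT cells stably expressing human TMEM16Aabc were recorded by automated whole-cell patch clamp, with intracellular Ca2+ buffered for ~EC20 activation, holding −70 mV and step to +70 mV at 0.05 Hz. Compound was applied cumulatively, 5 min per concentration. Peak current increase as % of baseline was fitted to give EC50 and maximum efficacy.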"}, "[5]": {"assay": "Storage of forms of Compound 36 at 40° C./75% RH in open vials, XRPD", "format": "physicochemical", "settings": "open vial, 14 days (2 weeks)", "method": "Form A was stored at 40° C./75% RH, in an open vial. […] Therefore, Form A is stable to exposure to elevated temperature and humidity for up to 2 weeks and no evidence of a hydrated form was observed.\nOne sample of each of the new forms (Forms B, C, D, E, E+extra peaks, F, G and H) was analysed by ^1H NMR, TGA, DSC and stored at 40° C./75% RH. Results are summarised in Table E with Form A for comparison."}},
  "note": "“Also recorded” adds a separate entry of the source.",
  "data": [
    {"smiles": "C#CC(C)(C)NC(=O)c1cc(NC(=O)Cc2cc(Cl)ccc2O)ccn1", "note": "[Example 36, 4-[[2-(5-Chloro-2-hydroxy-phenyl)acetyl]amino]-N-(1,1-dimethylprop-2-ynyl)pyridine-2-carboxamide]", "values": [
      {"measurement": "Solubility (in words)", "setting": "[1]; acetonitrile/water mixtures", "result": "freely soluble"},
      {"measurement": "Solubility (dissolution in anti-solvents)", "setting": "[1]; n-heptane, water and TBME, up to 60 volumes, 50° C.", "result": "no observable dissolution"},
      {"measurement": "Form produced by competitive suspension equilibration (XRPD)", "setting": "[2]; Tween/Span and Tween 80 buffers, 5 mg/ml, 13 days", "result": "consistent with Form A"},
      {"measurement": "Solubility (relative, in words)", "setting": "[3]", "result": "most soluble"},
      {"measurement": "% Potentiation @ 3.33 μM Avg", "setting": "[4]; 3.33 μM solution of test compound, percentage increase of baseline TMEM16A current", "result": 199, "unit": "%"},
      {"measurement": "EC50", "setting": "[4]; calculated EC50, Qpatch TMEM16A current at +70 mV", "result": 20, "unit": "nM"}
    ]},
    {"smiles": "C#CC(C)(C)NC(=O)c1cc(NC(=O)Cc2cc(Cl)ccc2O)ccn1", "note": "[Compound 36 Form A, 4-[[2-(5-Chloro-2-hydroxy-phenyl)acetyl]amino]-N-(1,1-dimethylprop-2-ynyl)pyridine-2-carboxamide]", "values": [
      {"measurement": "Storage at 40° C./75% RH (change of form by XRPD)", "setting": "[5]", "result": "no change in form was detected; also recorded: No change (14 days)"},
      {"measurement": "Solubility (dissolution in solvent)", "setting": "[1]; 2-Propanol, 5 vol, 50° C.", "result": "x"},
      {"measurement": "Solubility (dissolution in solvent)", "setting": "[1]; 2-Propanol, 10 vol, 50° C.", "result": "x"},
      {"measurement": "Solubility (dissolution in solvent)", "setting": "[1]; 2-Propanol, 30 vol, 50° C.", "result": "✓"},
      {"measurement": "Solubility (dissolution in solvent)", "setting": "[1]; 5% aqueous ACN, 5 vol, 50° C.", "result": "x"},
      {"measurement": "Solubility (dissolution in solvent)", "setting": "[1]; 5% aqueous ACN, 20 vol, 50° C.", "result": "✓"},
      {"measurement": "Solubility (dissolution in solvent)", "setting": "[1]; 20% aqueous ACN, 5 vol, 50° C.", "result": "x"},
      {"measurement": "Solubility (dissolution in solvent)", "setting": "[1]; 20% aqueous ACN, 10 vol, 50° C.", "result": "✓"},
      {"measurement": "Solubility (dissolution in solvent)", "setting": "[1]; Acetone, 5 vol, 50° C.", "result": "✓"},
      {"measurement": "Solubility (dissolution in solvent)", "setting": "[1]; Acetone, 10 vol, 50° C.", "result": "✓"},
      {"measurement": "Solubility (dissolution in solvent)", "setting": "[1]; Acetonitrile, 5 vol, 50° C.", "result": "x"},
      {"measurement": "Solubility (dissolution in solvent)", "setting": "[1]; Acetonitrile, 10 vol, 50° C.", "result": "x"},
      {"measurement": "Solubility (dissolution in solvent)", "setting": "[1]; Acetonitrile, 30 vol, 50° C.", "result": "✓"},
      {"measurement": "Solubility (dissolution in solvent)", "setting": "[1]; Dichloromethane, 5 vol, 50° C.", "result": "x"},
      {"measurement": "Solubility (dissolution in solvent)", "setting": "[1]; Dichloromethane, 10 vol, 50° C.", "result": "x"},
      {"measurement": "Solubility (dissolution in solvent)", "setting": "[1]; Dichloromethane, 20 vol, 50° C.", "result": "x"},
      {"measurement": "Solubility (dissolution in solvent)", "setting": "[1]; Dichloromethane, 30 vol, 50° C.", "result": "x"},
      {"measurement": "Solubility (dissolution in solvent)", "setting": "[1]; Ethanol, 5 vol, 50° C.", "result": "x"},
      {"measurement": "Solubility (dissolution in solvent)", "setting": "[1]; Ethanol, 10 vol, 50° C.", "result": "✓"},
      {"measurement": "Solubility (dissolution in solvent)", "setting": "[1]; Ethyl Acetate, 5 vol, 50° C.", "result": "x"},
      {"measurement": "Solubility (dissolution in solvent)", "setting": "[1]; Ethyl Acetate, 10 vol, 50° C.", "result": "x"},
      {"measurement": "Solubility (dissolution in solvent)", "setting": "[1]; Ethyl Acetate, 20 vol, 50° C.", "result": "✓"},
      {"measurement": "Solubility (dissolution in solvent)", "setting": "[1]; Tetrahydrofuran, 5 vol, 50° C.", "result": "x"},
      {"measurement": "Solubility (dissolution in solvent)", "setting": "[1]; Tetrahydrofuran, 10 vol, 50° C.", "result": "x"},
      {"measurement": "Solubility (dissolution in solvent)", "setting": "[1]; Tetrahydrofuran, 20 vol, 50° C.", "result": "✓"},
      {"measurement": "Solubility (dissolution in solvent)", "setting": "[1]; Water, 5 vol, 50° C.", "result": "x"},
      {"measurement": "Solubility (dissolution in solvent)", "setting": "[1]; Water, 10 vol, 50° C.", "result": "x"},
      {"measurement": "Solubility (dissolution in solvent)", "setting": "[1]; Water, 20 vol, 50° C.", "result": "x"},
      {"measurement": "Solubility (dissolution in solvent)", "setting": "[1]; Water, 30 vol, 50° C.", "result": "x"},
      {"measurement": "Solubility (dissolution in solvent)", "setting": "[1]; Water, 40 vol, 50° C.", "result": "x"},
      {"measurement": "Solubility (dissolution in solvent)", "setting": "[1]; Water, 50 vol, 50° C.", "result": "x"},
      {"measurement": "Solubility (dissolution in solvent)", "setting": "[1]; Water, 60 vol, 50° C.", "result": "x"},
      {"measurement": "Solubility (dissolution in solvent)", "setting": "[1]; n-Heptane, 5 vol, 50° C.", "result": "x"},
      {"measurement": "Solubility (dissolution in solvent)", "setting": "[1]; n-Heptane, 10 vol, 50° C.", "result": "x"},
      {"measurement": "Solubility (dissolution in solvent)", "setting": "[1]; n-Heptane, 20 vol, 50° C.", "result": "x"},
      {"measurement": "Solubility (dissolution in solvent)", "setting": "[1]; n-Heptane, 30 vol, 50° C.", "result": "x"},
      {"measurement": "Solubility (dissolution in solvent)", "setting": "[1]; n-Heptane, 40 vol, 50° C.", "result": "x"},
      {"measurement": "Solubility (dissolution in solvent)", "setting": "[1]; n-Heptane, 50 vol, 50° C.", "result": "x"},
      {"measurement": "Solubility (dissolution in solvent)", "setting": "[1]; n-Heptane, 60 vol, 50° C.", "result": "x"},
      {"measurement": "Solubility (dissolution in solvent)", "setting": "[1]; tert-Butylmethyl Ether, 5 vol, 50° C.", "result": "x"},
      {"measurement": "Solubility (dissolution in solvent)", "setting": "[1]; tert-Butylmethyl Ether, 10 vol, 50° C.", "result": "x"},
      {"measurement": "Solubility (dissolution in solvent)", "setting": "[1]; tert-Butylmethyl Ether, 20 vol, 50° C.", "result": "x"},
      {"measurement": "Solubility (dissolution in solvent)", "setting": "[1]; tert-Butylmethyl Ether, 30 vol, 50° C.", "result": "x"},
      {"measurement": "Solubility (dissolution in solvent)", "setting": "[1]; tert-Butylmethyl Ether, 40 vol, 50° C.", "result": "x"},
      {"measurement": "Solubility (dissolution in solvent)", "setting": "[1]; tert-Butylmethyl Ether, 50 vol, 50° C.", "result": "x"},
      {"measurement": "Solubility (dissolution in solvent)", "setting": "[1]; tert-Butylmethyl Ether, 60 vol, 50° C.", "result": "x"},
      {"measurement": "Form produced by competitive suspension equilibration (thermodynamic stability)", "setting": "[2]; TWEEN 80 (0.5 mg/ml) or TWEEN 20 (0.5 mg/ml)/SPAN 20 (0.05 mg/ml), 7 to 10 days", "result": "most thermodynamically stable form"}
    ]}
  ]
}
